Experimental data as given in ChEMBL document CHEMBL3098037, “Evaluation of benzoic acid derivatives as sirtuin inhibitors” (Bioorg Med Chem Lett, 2014).
Converted amounts (≈) assume the structure as drawn. The source made the active and inactive calls. No cut-off for these calls is given here.

How the values were obtained:
Saccharomyces cerevisiae [1] = assay: Inhibition of Sir2p in yeast DMY2844 assessed as growth inhibition after 48 hrs
[2] = target: T1, NAD-dependent protein deacetylase sirtuin-1 (Homo sapiens) (UniProt Q96EB6); assay: Inhibition of SIRT1 (unknown origin) at 1.6 mM by fluorescence assay
T1 sequence (whole entry): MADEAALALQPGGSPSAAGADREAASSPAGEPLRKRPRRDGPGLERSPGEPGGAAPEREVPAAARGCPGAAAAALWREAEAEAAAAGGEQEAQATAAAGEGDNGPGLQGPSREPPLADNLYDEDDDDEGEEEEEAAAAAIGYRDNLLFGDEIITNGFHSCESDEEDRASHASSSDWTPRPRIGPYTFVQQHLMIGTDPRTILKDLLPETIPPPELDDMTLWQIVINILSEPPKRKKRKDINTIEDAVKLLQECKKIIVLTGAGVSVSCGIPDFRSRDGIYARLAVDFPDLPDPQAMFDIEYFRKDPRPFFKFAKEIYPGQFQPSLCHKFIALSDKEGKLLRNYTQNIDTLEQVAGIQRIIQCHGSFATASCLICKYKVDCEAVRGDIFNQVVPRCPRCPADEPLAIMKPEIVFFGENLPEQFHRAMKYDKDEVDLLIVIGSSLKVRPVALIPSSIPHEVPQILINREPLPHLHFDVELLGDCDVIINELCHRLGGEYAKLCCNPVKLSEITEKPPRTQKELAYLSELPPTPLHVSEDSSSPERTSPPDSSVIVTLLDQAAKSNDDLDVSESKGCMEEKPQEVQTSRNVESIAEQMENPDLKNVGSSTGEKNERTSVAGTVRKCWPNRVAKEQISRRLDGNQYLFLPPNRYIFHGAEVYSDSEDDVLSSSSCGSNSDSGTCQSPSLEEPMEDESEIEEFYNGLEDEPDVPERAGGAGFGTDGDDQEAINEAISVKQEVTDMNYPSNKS

[3] = target: T2, NAD-dependent protein deacetylase sirtuin-2 (Homo sapiens) (UniProt Q8IXJ6); assay: Inhibition of SIRT2 (unknown origin) at 1.6 mM by fluorescence assay
T2 sequence (whole entry): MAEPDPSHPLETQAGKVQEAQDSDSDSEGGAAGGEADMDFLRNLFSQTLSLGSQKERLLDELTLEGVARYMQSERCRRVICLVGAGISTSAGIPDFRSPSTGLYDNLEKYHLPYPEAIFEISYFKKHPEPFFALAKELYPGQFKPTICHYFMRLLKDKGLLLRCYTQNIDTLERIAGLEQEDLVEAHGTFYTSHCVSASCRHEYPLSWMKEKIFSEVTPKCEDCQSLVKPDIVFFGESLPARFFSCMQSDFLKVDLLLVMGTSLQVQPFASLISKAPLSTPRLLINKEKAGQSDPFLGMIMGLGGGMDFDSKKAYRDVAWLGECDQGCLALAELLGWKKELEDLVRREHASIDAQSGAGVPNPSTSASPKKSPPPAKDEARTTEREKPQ

Saccharomyces cerevisiae [4] = assay: Inhibition of Sir2p in yeast DMY2844 assessed as growth inhibition at 800 uM after 48 hrs
[5] = Cytotoxicity against human MIAPaCa2 cells; format: functional, cell-based; conditions: MIA PaCa-2
A549 = assay: Cytotoxicity against human A549 cells; format: functional, cell-based
NCI-H460 = assay: Cytotoxicity against human NCI-H460 cells; format: functional, cell-based
DU-145 = assay: Cytotoxicity against human DU145 cells; format: functional, cell-based

Row | MIC (Saccharomyces cerevisiae [1]) [µM] | inhibition (Saccharomyces cerevisiae [4]) | Compound | other results
1 | 200 (≈ 33 µg/mL) | – | CN(C)c1ccc(C(=O)O)cc1 | inhibition [2]: 25.3%; inhibition [3]: 30.3%
2 | – | inactive | C[N+](C)(C)c1ccc(C(=O)[O-])cc1 | –
3 | 400 (≈ 60.5 µg/mL) | – | CNc1ccc(C(=O)O)cc1 | –
4 | – | – | CC[n+]1c(C=CC=C2N(C)c3ccccc3C2(C)C)sc2ccccc21 | IC50 [5]: 10 nM; IC50 (A549): 10 nM; IC50 (NCI-H460): 10 nM; IC50 (DU-145): 10 nM
5 | – | inactive | O=C(O)c1ccccc1 | –
6 | – | inactive | CN(C)c1ccc(Br)cc1 | –
7 | 400 (≈ 71.7 µg/mL) | – | COC(=O)c1ccc(N(C)C)cc1 | –
8 | 200 (≈ 32.8 µg/mL) | – | CC(C)c1ccc(C(=O)O)cc1 | –
9 | – | inactive | CN(C)c1ccc([N+](=O)[O-])cc1 | –
10 | 800 (≈ 109 µg/mL) | – | Cc1ccc(C(=O)O)cc1 | –
11 | – | inactive | CN(C)c1ccc(S(=O)(=O)O)cc1 | –
12 | – | inactive | CN(C)c1ccc(C(N)=O)cc1 | –
13 | 800 (≈ 110 µg/mL) | – | Nc1ccc(C(=O)O)cc1 | –
14 | – | inactive | CN(C)c1cccc(C(=O)O)c1 | –
15 | – | inactive | CN(C)c1ccccc1C(=O)O | –

Row | Compound | MIC (Saccharomyces cerevisiae [1]) [µM] | inhibition (Saccharomyces cerevisiae [4]) | other results
16 | CC(C)(C)c1ccc(C(=O)O)cc1 | 50 (≈ 8.91 µg/mL) | – | inhibition [2]: 54.8%; inhibition [3]: 28%
17 | CN(C)c1ccccc1 | – | inactive | –
